Test results from PubChem BioAssay (NCI).
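How tested: cells in 96-well plates exposed to compound for 48 hours at five concentrations. At the TGI there is no net growth.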

Legend:
Test in all cases: NCI-60 cell line screen, 48 h
ACHN renal = system: ACHN renal
HCC-2998 colon = system: HCC-2998 colon
IGROV1 ovarian = system: IGROV1 ovarian
RPMI-8226 leukemia = system: RPMI-8226 leukemia
SK-MEL-28 melanoma = system: SK-MEL-28 melanoma
SK-OV-3 ovarian = system: SK-OV-3 ovarian
SR leukemia = system: SR leukemia
U251 CNS = system: U251 CNS
UO-31 renal = system: UO-31 renal
CAKI-1 renal = system: CAKI-1 renal

Row | SMILES | TGI (ACHN renal) [µM] | TGI (HCC-2998 colon) [µM] | TGI (IGROV1 ovarian) [µM] | TGI (RPMI-8226 leukemia) [µM] | TGI (SK-MEL-28 melanoma) [µM] | TGI (SK-OV-3 ovarian) [µM] | TGI (SR leukemia) [µM] | TGI (U251 CNS) [µM] | TGI (UO-31 renal) [µM] | TGI (CAKI-1 renal) [µM]
1 | CCC1CCC2c3c([nH]c4ccccc34)C3C(=O)N(c4ccc(OC)cc4)C(=O)C3C2C1 (configuration not stated) | > 100 | > 100 | > 100 | > 100 | > 100 | > 100 | 32.1 | 36.2 | > 100 | –
2 | Cc1cccc(C(O)c2cccnc2)c1O (configuration not stated) | > 100 | > 100 | > 100 | > 100 | > 100 | – | > 100 | > 100 | > 100 | > 100
3 | CCOC(=O)c1c(-c2ccc(OC)c(O)c2)c(C#N)c(=S)n(C2OC(CO)C(O)C(O)C2O)c1-c1ccccc1 (configuration not stated) | > 100 | > 100 | > 100 | > 100 | > 100 | – | > 100 | > 100 | > 100 | > 100
4 | CC1(C)CC(=O)C(=CN2C(=O)CNC2=S)C(=O)C1 | > 100 | > 100 | > 100 | – | – | > 100 | – | > 100 | > 100 | > 100
5 | C=C1CC(OC)(C(O)C(=O)N[C@H]2OCO[C@H]3C2O[C@H](C[C@H](O)COC)C(C)(C)C3OC)O[C@H](C)[C@@H]1C (some centres not stated) | – | > 0.00772 | > 0.00772 | > 0.00772 | > 0.00772 | – | – | > 0.00772 | > 0.00772 | –
6 | CCOC(=O)CCC(C(=O)OCC)n1nnc2cc(Nc3c(C)[n+]([O-])c4ccc(Cl)cc4[n+]3[O-])ccc21 (configuration not stated) | > 100 | – | > 100 | > 100 | – | > 100 | > 100 | > 100 | > 100 | > 100
7 | CC1(C)CC2(C)OC(=N)C1(C#N)C2(C#N)C#N (configuration not stated) | 20.3 | 24.4 | 29.9 | 23.7 | – | > 100 | – | 29.3 | 16.2 | 12.3
8 | COc1ccc(C2NC(=O)Nc3c2c(=O)oc2c3ccc3ccccc32)cc1 (configuration not stated) | > 100 | – | > 100 | > 100 | > 100 | > 100 | > 100 | > 100 | > 100 | > 100
9 | Cc1ccc2c(=O)c(C(=O)N(CCO)CCO)c[nH]c2n1 | > 100 | – | > 100 | > 100 | > 100 | – | – | > 100 | > 100 | > 100
10 | c1ccc(CNc2ncnc3n[nH]nc23)cc1 | > 100 | > 100 | > 100 | – | > 100 | > 100 | – | > 100 | > 100 | > 100
11 | COC(=O)[C@@H]1O[C@]12[C@@H](CO[Si](C)(C)C(C)(C)C)O[C@@H](n1cc(C)c(=O)[nH]c1=O)[C@@H]2O[Si](C)(C)C(C)(C)C | 33 | – | 21.6 | – | 38.5 | > 100 | – | 24.7 | – | 70
12 | COC1=CC(=O)c2c(cc(COP(=O)(N(C)CCBr)N(C)CCBr)n2C)C1=O | 0.492 | 1.77 | 19.2 | 4.11 | 3.51 | 8.3 | – | 8.43 | 2.52 | 2.26
13 | C=C(C(=O)OC)[C@H]1CC/C(C)=C/CC/C(C)=C/CC[C@@]2(C)O[C@@H]2C1 | 34.5 | 30.8 | 31.5 | 32.8 | > 100 | > 100 | – | 44 | 55 | 28.1
14 | CN(C)C=Nc1nncc2n[nH]nc12 | > 100 | – | > 100 | > 100 | > 100 | – | > 100 | > 100 | > 100 | > 100
15 | CCOC(=O)C[n+]1ccc2c([nH]c3cc(OC)ccc32)c1C | – | > 100 | > 100 | > 100 | > 100 | > 100 | – | > 100 | > 100 | > 100
16 | COc1ccc(C2=NNC(=O)c3ccccc3N2c2nc(-c3cccs3)nc3ccc(Br)cc23)cc1 | > 100 | – | > 100 | > 100 | > 100 | > 100 | > 100 | > 100 | > 100 | > 100
17 | COc1ccccc1N1C(=O)/C(=C\c2cccc(Oc3ccccc3)c2)S(=O)(=O)C1c1ccccc1 (configuration not stated) | > 100 | > 100 | – | – | > 100 | > 100 | 56.2 | > 100 | > 100 | > 100
18 | CC1(C)Oc2ccc3c(=O)c4ccccc4oc3c2C1C(=O)O (configuration not stated) | – | > 100 | > 100 | – | – | > 100 | – | > 100 | – | > 100
